Experimental data: US9615577B2, “Herbicidally active cyclic dione compounds, or derivatives therefor, substituted by a phenyl which has an alkynyl-containing substituent” (Syngenta Limited, priority 2012, dated 2017)

Key:
Assay in all cases: Biological Example 3 glasshouse assay for herbicidal activity, using various adjuvant systems, post-emergence
Format in all cases: in vivo
Eleusine indica (ELEIN) = conditions: 8 g/ha, 14 DAA, adjuvant system per compound
Experimental: (§1) Post-emergence foliar spray application, 200 L/ha, usually one or two replicates for the weeds (depending on application rate), and two replicates for soybean.
(§2) Standard warm conditions (tropical), in glasshouse. Specifically, the glasshouse bay conditions are 24° C./18° C. day/night; 16/8 hours light/dark; 65% humidity.
(§3) The herbicidal application takes place at the following growth stages for plants which include inter alia one or more of the following plants (usually the herbicidal application takes place on at least the following six plants: DIGSA, ELEIN, SETFA, GLXMA Nikko, and GLXMA TMG133, and either BRADC or BRAPP):
Eleusine indica (ELEIN)—growth stage 12 or 13
(§4) Each test Compound is applied with one of the following adjuvant systems (all percentages are final concentrations in the aqueous spray mixture):
(§5) Adjuvant system 1: 0.5% v/v Adigor™ *, 1.0% v/v AMS (ammonium sulphate) and 12.5% v/v IPA (isopropyl alcohol).
(§6) Adjuvant system 2: 0.5% v/v Adigor™ * and 12.5% v/v IPA (isopropyl alcohol).
(§7) Adjuvant system 3: 0.5% v/v Hexamoll™ DINCH **, 1.0% v/v AMS (ammonium sulphate) and 12.5% v/v IPA (isopropyl alcohol).
(§8) Seeds of the weed plants, typically including inter alia [either Brachiaria decumbens (BRADC) or Brachiaria platyphylla (BRAPP)], Digitaria sanguinalis (DIGSA), Eleusine indica (ELEIN), Setaria faberi (SETFA) are sown in seed trays (troughs) containing clay loam soil (pH 7.0, 2.2% organic matter, “Trough Mix A”); and soybean seed is sown in pots containing the same soil with 3 soybean seedlings per pot. The plants are sprayed with the test herbicide when they reach the growth stages mentioned above.
(§9) The test herbicidal solutions are prepared by mixing the appropriate aliquots of the test substance(s) and the adjuvant system indicated above *** in deionised water to give the desired treatment concentration. […]
(§10) A visual assessment of the % herbicidal damage is made 7 and 14 Days After herbicide Application (DAA) (or, in a minority of cases, 7 and 15 DAA), and the results are recorded as % visual herbicidal damage where 0%=no damage to plants and 100%=plant totally killed. […]

[1] = tested on: Digitaria sanguinalis (DIGSA); conditions: 8 g/ha, 14 DAA, 0.5% v/v Adigor + 1.0% v/v AMS + 12.5% v/v IPA
Experimental: as §1, §2, §3
Digitaria sanguinalis (DIGSA)—growth stage 12 or 13
as §4, §5, §6, §7
Seeds of the weed plants, typically including inter alia [either Brachiaria decumbens (BRADC) or Brachiaria platyphylla (BRAPP)], Digitaria sanguinalis (DIGSA), Eleusine indica (ELEIN), Setaria faberi (SETFA) are sown in seed trays (troughs) containing clay loam soil (pH 7.0, 2.2% organic matter, “Trough Mix A”); and soybean seed is sown in pots containing the same soil with 3 soybean seedlings per pot. The plants are sprayed with the test herbicide when they reach the growth stages mentioned above. […]
as §10

Setaria faberi (SETFA) = conditions: 8 g/ha, 14 DAA, 0.5% v/v Adigor + 1.0% v/v AMS + 12.5% v/v IPA
Experimental: as §1, §2, §3
Setaria faberi (SETFA)—growth stage 12 or 13
as §4, §5, §6, §7, §8, §9, §10

[2] = tested on: Glycine max (GLXMA, soybean) cultivar “Nikko”; conditions: 120 g/ha, 14 or 15 DAA, adjuvant system per compound
Experimental: as §1, §2, §3
Glycine max (GLXMA, soybean) cultivar “Nikko”—growth stage: 1st trifoliate
as §4, §5
Adjuvant system 2: 0.5% v/v Adigor™ * and 12.5% v/v IPA (isopropyl alcohol). […]
as §10

[3] = tested on: Glycine max (GLXMA, soybean) cultivar “TMG133”; conditions: 120 g/ha, 14 or 15 DAA, adjuvant system per compound
Experimental: as §1, §2, §3
Glycine max (GLXMA, soybean) cultivar “TMG133”—which is Roundup Ready™glyphosate-tolerant soybean cultivar TMG133 (typically available from Monsanto in Brazil)—growth stage: 1st trifoliate.
Each test Compound is applied with one of the following adjuvant systems (all percentages are final concentrations in the aqueous spray mixture): […]
as §10
Glycine max (GLXMA, soybean) cultivar “TMG133” is Roundup Ready™ glyphosate-tolerant soybean cultivar TMG133, and is typically available from Monsanto in Brazil.

| SMILES | percentage control of Eleusine indica (ELEIN) (Eleusine indica (ELEIN)) | percentage control of Digitaria sanguinalis (DIGSA) [1] | percentage control of Setaria faberi (SETFA) (Setaria faberi (SETFA)) | percentage phytotoxicities on Glycine max (GLXMA, soybean) cultivar “Nikko” [2] | percentage phytotoxicities on Glycine max (GLXMA, soybean) cultivar “TMG133” [3] |
| --- | --- | --- | --- | --- | --- |
| CC#Cc1cc(C)c(C2C(=O)C3CCC(C3)C2=O)c(C)c1 (centres unmarked) [Compound A-5] | 45% | – | – | – | – |
| CC#Cc1cc(Cl)c(C2C(=O)CC3(CCOCC3)CC2=O)c(OC)c1 [Compound A-20, 9-(2-Chloro-6-methoxy-4-prop-1-ynyl-phenyl)-3-oxa-spiro[5.5]undecane-8,10-dione] | 95% | 100% | 98% | 85% | 85% |
| CC#Cc1cc(C)c(C2C(=O)CC(CCSC)CC2=O)c(C)c1 (centres unmarked) [Compound A-21, 2-(2,6-Dimethyl-4-prop-1-ynyl-phenyl)-5-(2-methylsulfanyl-ethyl)cyclohexane-1,3-dione] | – | – | – | 85% | 85% |
